Measured values from patent US10294218B2 (VIROSTATICS SRL, priority 2012, dated 2019).
pIC50: −log10 of the molar value. Where a name gives a salt, the structure may show the parent alone. Read-outs that look alike come from different tables or passages of the source.

Assays:
[1] = system: laboratory strain of HIV-1; test: Antiviral activity against HIV (AV), p24 in infected activated primary T cells; type: cell-based; conditions: for pIC50: read-out: AV50 (Inhibitory concentration 50% for antiviral activity); for antiviral and antiproliferative activity and cytotoxicity profile (in words): summary of AV, AP and cytotoxicity assays
Procedure: Activated primary T cells are infected with a laboratory strain of HIV-1, then cultured and exposed to different concentrations of the test compounds. HIV replication is analysed by measuring the viral protein p24 and expressed as percentage of untreated control. Inhibition of viral replication (AV) is then calculated (AV=100 minus the % p24 compared to control, AV of control=0%). Inhibitory concentration 50% for antiviral activity (AV50) is calculated.
(§1) In Tables 2, 3 and 4, ND means Not Determined.

Primary T cells [2] = test: Cytotoxicity, percentage of viable cells by flow cytometry; type: cell-based; conditions: viability
Procedure: Primary T cells are cultured and treated with different concentrations of the test compound. Viability is analysed by measuring through flow cytometry based techniques the percentage of viable cells, compared to untreated control=100%).
as §1

Primary T cells [3] = test: Antiproliferative activity (AP), mitotic index by flow cytometry; type: cell-based; conditions: read-out: AP50 (Inhibitory concentration 50% for antiproliferative capacity)
Procedure: Primary T cells are cultured and exposed to different concentrations of the test compounds. Cell proliferation is analysed by measuring mitotic index (ie the number of cell divisions a population of cells undergoes) through flow cytometry based techniques. Mitotic index is expressed as percentage of untreated control. Inhibition of cell proliferation (AP) is then calculated (AP=100 minus % mitotic index compared to control, AP of control=0%). Inhibitory concentration 50% for antiproliferative capacity (AP50) is calculated.
as §1

[4] = biological target: human CDK9/CyclinT kinase complex (Homo sapiens (Human), UniProt P50750); test: In vitro CDK9/CyclinT assay (IMAP fluorescent polarization); type: biochemical
Procedure: The activity of the compounds described in the present invention can be determined by measuring the phosphorylation of a fluorescently-labeled peptide by human CDK9/CyclinT kinase complex by fluorescent polarization using a commercially available IMAP Screening Express Assay Kit (Molecular devices).
Test compounds were diluted in 100% DMSO to 5 mM stock concentration, then further dilutions were made in H2O or 100% DMSO to desirable concentrations.
Each reaction consisted of 5 nM enzyme: CDK9/CyclinT (Proqinase cat#0371-0345-1), 400 nM TAMRA-Rbtide (synthetic 15-mer peptide derived from human retinoblastoma tumor suppressor protein labeled with TAMRA dye, Genecust Europe), 12 μM ATP (=Kmapp, Sigma-Aldrich) and kinase buffer: 20 mM MOPS pH 7 (Sigma-Aldrich), 1 mM DTT (Sigma-Aldrich), 10 mM MgCl2 (Sigma-Aldrich), 0.01% Tween 20 (Sigma-Aldrich).
For each reaction, 4 or 6 μl containing TAMRA-Rbtide, ATP and kinase buffer were combined with 2 μl diluted compound in H2O or 0.028 μl compound in 100% DMSO. The kinase reaction was started by the addition of 2 μl diluted enzyme. The reaction was allowed to run for 1 hour at room temperature. The reaction was stopped by adding 15 μl IMAP beads (1:400 beads in progressive (100% buffer A) 1× buffer).

[5] = Human immunodeficiency virus 1, T-cell
[6] = T-cell, primary T cells, mitotic index

Chain of human CDK9/CyclinT kinase complex (P50750 whole entry): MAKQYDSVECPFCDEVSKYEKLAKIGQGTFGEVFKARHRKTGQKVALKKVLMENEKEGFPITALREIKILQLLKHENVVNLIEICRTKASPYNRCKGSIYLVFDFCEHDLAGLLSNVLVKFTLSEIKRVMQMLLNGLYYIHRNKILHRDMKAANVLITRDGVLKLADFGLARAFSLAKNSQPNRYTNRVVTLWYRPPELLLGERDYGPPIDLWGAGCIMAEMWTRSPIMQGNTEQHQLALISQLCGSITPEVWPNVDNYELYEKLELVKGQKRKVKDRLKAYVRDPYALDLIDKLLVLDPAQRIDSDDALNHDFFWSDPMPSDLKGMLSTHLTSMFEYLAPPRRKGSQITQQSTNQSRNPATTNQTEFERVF
Chain of human CDK9/CyclinT kinase complex (O60563 whole entry partner): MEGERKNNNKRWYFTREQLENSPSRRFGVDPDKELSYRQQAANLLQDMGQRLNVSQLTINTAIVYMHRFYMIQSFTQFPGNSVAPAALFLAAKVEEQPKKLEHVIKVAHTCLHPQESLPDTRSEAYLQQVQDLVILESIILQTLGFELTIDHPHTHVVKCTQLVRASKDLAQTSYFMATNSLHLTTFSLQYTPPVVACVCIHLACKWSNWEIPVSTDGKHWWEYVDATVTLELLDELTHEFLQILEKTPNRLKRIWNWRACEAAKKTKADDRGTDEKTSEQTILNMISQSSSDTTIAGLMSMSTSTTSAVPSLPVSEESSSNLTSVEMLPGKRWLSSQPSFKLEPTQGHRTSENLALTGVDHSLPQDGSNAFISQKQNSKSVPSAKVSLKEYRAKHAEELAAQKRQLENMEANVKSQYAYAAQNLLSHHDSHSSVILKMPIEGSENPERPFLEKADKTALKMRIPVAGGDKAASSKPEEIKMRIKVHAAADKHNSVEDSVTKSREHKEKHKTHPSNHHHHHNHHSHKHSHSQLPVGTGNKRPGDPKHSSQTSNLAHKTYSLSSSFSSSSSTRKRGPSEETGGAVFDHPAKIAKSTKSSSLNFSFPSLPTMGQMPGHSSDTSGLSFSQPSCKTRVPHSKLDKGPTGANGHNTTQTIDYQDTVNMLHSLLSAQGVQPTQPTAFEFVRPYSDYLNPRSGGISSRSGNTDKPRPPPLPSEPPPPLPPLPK

| SMILES | pIC50 [1, 5] | TD50 (Toxic dose 50%) (Primary T cells [2]) | pIC50 (Primary T cells [3]; T-cell) | pIC50 (Primary T cells [3]; [6]) | also measured |
| --- | --- | --- | --- | --- | --- |
| COc1ccc(Nc2cc(-c3ccc(F)cc3OC)ncn2)cc1NC(C)=O [Example 117, N-{5-[6-(4-Fluoro-2-methoxy-phenyl)-pyrimidin-4-ylamino]-2-methoxy-phenyl}-acetamide] | 6.70 | >2 µM | – | – | – |
| CNCc1cc(Nc2cc(-c3ccccc3OC)ncn2)ccc1OC [Example 37, N-(4-Methoxy-3-((methylamino)methyl)phenyl)-6-(2-methoxyphenyl)pyrimidin-4-amine] | – | 2 µM | – | – | pIC50 ([1]; HIV-1 infected activated primary T cells, p24): < 5.82; pIC50 (Primary T cells [3]; primary T cells, mitotic index): 5.70 |
| COc1ccc(Nc2cc(-c3ccccc3OC)ncn2)cc1C(=O)N(C)N [Example 46, 2-Methoxy-5-[6-(2-methoxy-phenyl)-pyrimidin-4-ylamino]-benzoic acid N-methyl-hydrazide] | 5.30 | >10 µM | – | – | – |
| COc1ccc(Nc2cc(-c3ccc(F)cc3OC)ncn2)cc1OC(C)=O [Example 126, Acetic Acid 5-[6-(4-fluoro-2-methoxy-phenyl)-pyrimidin-4-ylamino]-2-methoxy-phenyl Ester] | 7.00 | >2 µM | – | – | – |
| COc1ccc(Nc2cc(-c3ccccc3OC)ncn2)cc1OCCN1CCOCC1 [Example 8, N-(4-Methoxy-3-(2-morpholinoethoxy)phenyl)-6-(2-methoxyphenyl)pyrimidin-4-amine] | 6.40 | >1.5 µM | < 5.82 | – | – |
| CC[C@H](CO)Nc1nc(NCc2ccccc2)c2ncn(C(C)C)c2n1 [Roscovitine, reference compound] | – | 8 µM | – | – | anti-HIV and cytotoxicity profile (in words) ([1]; summary of AV and cytotoxicity assays): poor anti-HIV and cytotoxicity profile |
| COc1ccccc1-c1cc(Nc2ccc(N(C)C)c(F)c2)ncn1 [Example 106, 2-Fluoro-N^4-[6-(2-methoxy-phenyl)-pyrimidin-4-yl]-N^1,N^1-dimethyl-benzene-1,4-diamine Hydrochloride] | – | – | – | – | pIC50 [4]: > 6.00 |
| COc1ccccc1-c1cc(Nc2ccc(N(C)C)cc2)ncn1 [Example 5, N^1-(6-(2-methoxyphenyl)pyrimidin-4-yl)-N^4,N^4-dimethylbenzene-1,4-diamine] | 6.52 | >10 µM | 6.82 | – | antiviral and antiproliferative activity and cytotoxicity profile (in words) [1]: good antiviral and antiproliferative activity and a good cytotoxicity profile |
| COc1ccc(Nc2cc(-c3ccccc3OC)ncn2)cc1NC(=O)OCC(Cl)(Cl)Cl [Example 27, 2,2,2-Trichloroethyl 2-methoxy-5-(6-(2-methoxyphenyl)pyrimidin-4-ylamino)phenylcarbamate] | < 6.30 | >0.5 µM | < 6.30 | – | – |
| COc1ccccc1-c1cc(Nc2ccc(Cl)c(CN3C(=O)c4ccccc4C3=O)c2)ncn1 [Example 20, 2-(2-Chloro-5-(6-(2-methoxyphenyl)pyrimidin-4-ylamino)benzyl)isoindoline-1,3-dione] | < 5.82 | >0.5 µM | < 6.30 | – | – |
| COc1ccc(Nc2cc(-c3ccccc3OC)ncn2)cc1OCc1ccccc1 [Example 36, N-(3-(Benzyloxy)-4-methoxyphenyl)-6-(2-methoxyphenyl)pyrimidin-4-amine] | – | >5 µM | < 5.30 | – | – |
| COC(=O)Nc1cc(Nc2cc(-c3ccc(F)cc3OC)ncn2)ccc1OC [Example 118, {5-[6-(4-Fluoro-2-methoxy-phenyl)-pyrimidin-4-ylamino]-2-methoxy-phenyl}-carbamic Acid Methyl Ester] | 5.82 | >2 µM | – | – | – |
| COc1ccccc1-c1cc(Nc2ccc(Cl)c(O)c2)ncn1 [Example 107, 2-Chloro-5-[6-(2-methoxy-phenyl)-pyrimidin-4-ylamino]-phenol Hydrochloride] | – | – | – | – | pIC50 [4]: > 6.00 |
| COc1ccc(Nc2cc(-c3ccccc3OC)ncn2)cc1CN1C(=O)c2ccccc2C1=O [Example 3, 2-(2-Methoxy-5-(6-(2-methoxyphenyl)pyrimidin-4-ylamino)benzyl)isoindoline-1,3-dione] | – | >5 µM | < 6.00 | – | – |
| COc1ccc(Nc2cc(-c3ccc(F)cc3OC)ncn2)cc1N [Example 64] | 5.30 | – | – | > 7.10 | antiviral and antiproliferative activity and cytotoxicity profile (in words) [1]: good antiviral and antiproliferative activity and a good cytotoxicity profile |
| COc1ccccc1-c1cc(Nc2ccc(F)c(Cn3cnc4ccccc43)c2)ncn1 [Example 40, N-(3-((1H-Benzo[d]imidazol-1-yl)methyl)-4-fluorophenyl)-6-(2-methoxyphenyl)pyrimidin-4-amine] | 6.30 | – | – | < 6.70 | – |
| COc1ccc(Nc2cc(-c3ccccc3OC)ncn2)cc1C(N)=O [Example 45, 2-methoxy-5-(6-(2-methoxyphenyl)pyrimidin-4-ylamino)benzamide] | 7.30 | – | 7.10 | – | antiviral and antiproliferative activity and cytotoxicity profile (in words) [1]: good antiviral and antiproliferative activity and a good cytotoxicity profile |
| COc1ccccc1-c1cc(Nc2ccc(Cl)c(CO)c2)ncn1 [Example 6, (2-Chloro-5-(6-(2-methoxyphenyl)pyrimidin-4-ylamino)phenyl)methanol] | < 5.82 | – | – | < 6.30 | – |
| CCOc1ccc(F)cc1-c1cc(Nc2cc(F)c(OC)c(C(N)=O)c2)ncn1 [Example 142, 5-[6-(2-Ethoxy-5-fluoro-phenyl)-pyrimidin-4-ylamino]-3-fluoro-2-methoxy-benzamide] | 7.40 | – | 7.40 | – | antiviral and antiproliferative activity and cytotoxicity profile (in words) [1]: good antiviral and antiproliferative activity and a good cytotoxicity profile |
| COc1ccc(Nc2cc(-c3ccccc3OC)ncn2)cc1F [Example 22, N-(3-Fluoro-4-methoxyphenyl)-6-(2-methoxyphenyl)pyrimidin-4-amine] | > 5.82 | – | – | < 6.30 | – |
| COc1ccc(Nc2cc(-c3ccccc3OC(C)C)ncn2)cc1N [Example 79, N^1-[6-(2-Isopropoxy-phenyl)-pyrimidin-4-yl]-4-methoxy-benzene-1,3-diamine] | 8.10 | – | – | > 7.10 | antiviral and antiproliferative activity and cytotoxicity profile (in words) [1]: good antiviral and antiproliferative activity and a good cytotoxicity profile |
| COc1ccc(Nc2cc(-c3ccccc3OC)ncn2)cc1CO [Example 24, (2-Methoxy-5-(6-(2-methoxyphenyl)pyrimidin-4-ylamino)phenyl)methanol] | < 6.30 | – | < 6.30 | – | – |
| CCOc1ccc(Nc2cc(-c3ccc(F)cc3OC)ncn2)cc1C(N)=O [Example 112, 2-Ethoxy-5-[6-(4-fluoro-2-methoxy-phenyl)-pyrimidin-4-ylamino]-benzamide] | 8.22 | – | – | > 8.52 | antiviral and antiproliferative activity and cytotoxicity profile (in words) [1]: good antiviral and antiproliferative activity and a good cytotoxicity profile |
| COc1ccc(Nc2cc(-c3cc(F)ccc3OC)ncn2)cc1N [Example 75, N^1-[6-(5-Fluoro-2-methoxy-phenyl)-pyrimidin-4-yl]-4-methoxy-benzene-1,3-diamine] | 8.00 | – | – | > 7.10 | antiviral and antiproliferative activity and cytotoxicity profile (in words) [1]: good antiviral and antiproliferative activity and a good cytotoxicity profile |
| COc1ccccc1-c1cc(Nc2ccc(N3CCN(C)CC3)c(S(N)(=O)=O)c2)ncn1 [Example 38, 5-(6-(2-Methoxyphenyl)pyrimidin-4-ylamino)-2-(4-methylpiperazin-1-yl)benzenesulfonamide] | > 5.82 | – | – | < 6.30 | – |
| COC(=O)c1cc(Nc2cc(-c3ccccc3OC)ncn2)ccc1O [Example 21, Methyl 2-hydroxy-5-(6-(2-methoxyphenyl)pyrimidin-4-ylamino)benzoate] | > 5.82 | – | – | < 6.30 | – |
| COc1cc(F)c(Nc2cc(-c3cc(F)ccc3OC)ncn2)cc1C(N)=O [Example 144, 4-Fluoro-5-[6-(5-fluoro-2-methoxy-phenyl)-pyrimidin-4-ylamino]-2-methoxy-benzamide] | > 8.52 | – | 7.05 | – | antiviral and antiproliferative activity and cytotoxicity profile (in words) [1]: good antiviral and antiproliferative activity and a good cytotoxicity profile |
